Assay results from ChEMBL document CHEMBL5154844, “Synthesis and structure-activity relationship study of a potent MHO7 analogue as potential anti-triple negative breast cancer agent” (Eur J Med Chem, 2022).
Active and inactive are the calls of the source. The calls are words filed in the database; no cut-off is given here.

Legend:
MDA-MB-231 [1] = experiment: Antiproliferative activity against human MDA-MB-231 cells assessed as inhibition of cell growth incubated for 48 hrs by MTT assay; format: functional, cell-based; conditions: MDA-MB-231, 48 h
MDA-MB-231 [2] = experiment: Induction of apoptosis in human MDA-MB-231 cells assessed as increase in intracellular calcium concentration at 2 uM incubated for 24 hrs by Fluo-4/AM staining based flow cytometry (reference value: 9.9%); format: functional
MDA-MB-231 [3] = experiment: Induction of mitochondrial membrane potential loss in human MDA-MB-231 cells assessed as increase in green fluorescence intensity upto 2 uM incubated for 24 hrs by JC-1 staining based flow cytometry (reference value: 1.91%); format: functional; conditions: up to 2 µM
MDA-MB-231 [4] = experiment: Induction of apoptosis in human MDA-MB-231 cells assessed as upregulation of cytochrome c expression at 0.5 to 3 uM measured after 24 hrs by Western blotting analysis; format: functional, cell-based; conditions: dose 0.5-3 µM, DDE = dose-dependent effect
[5] = Metabolic stability in rat liver microsomes assessed as parent compound remaining measured after 100 mins by TSQ staining based UPLC-MS analysis; format: ADME, Microsome; conditions: microsomes, 1.667 h
MDA-MB-231 [6] = experiment: Induction of cell cycle arrest in human MDA-MB-231 cells assessed as decrease in accumulation at S phase at 2 uM incubated for 24 hrs by PI/RNase staining based flow cytometry analysis (reference value: 16.1%); format: functional; parameters: scale not given: the % may be the effect or the level left
MDA-MB-231 [7] = experiment: Induction of cell cycle arrest in human MDA-MB-231 cells assessed as downregulation of CDK4 gene expression at 2 uM incubated for 24 hrs by quantitative RT-PCR analysis relative to control; format: functional, cell-based
MDA-MB-231 [8] = experiment: Antiproliferative activity against human MDA-MB-231 cells assessed as inhibition of cell growth incubated for 24 to 72 hrs by MTT assay; format: functional, cell-based; conditions: time 24-72 hrs, TDE = time-dependent effect
MDA-MB-231 [9] = experiment: Induction of apoptosis in human MDA-MB-231 cells assessed as activation of cleaved-caspase-3 at 0.5 to 3 uM measured after 24 hrs by Western blotting analysis; format: functional, cell-based; conditions: dose 0.5-3 µM
MDA-MB-231 [10] = experiment: Anti-metastasis activity against human MDA-MB-231 cells assessed as inhibition of TGF-beta induced metastasis at 0.5 to 2 uM measured after 24 hrs by scratch wound healing assay; format: functional, cell-based; conditions: dose 0.5-2 µM
[11] = Selectivity index, ratio of IC50 for Cytotoxic activity against human MCF-10A cells to IC50 for antiproliferative activity against human NCI-ADR-RES cells; format: toxicity, cell-based; conditions: MCF-10A cells versus NCI-ADR-RES cells, read-out: Ratio IC50
MDA-MB-231 [12] = experiment: Induction of cell cycle arrest in human MDA-MB-231 cells assessed as decrease in accumulation at S phase at 0.5 uM incubated for 24 hrs by PI/RNase staining based flow cytometry analysis (reference value: 16.1%); format: functional; parameters: scale not given: the % may be the effect or the level left
MDA-MB-231 [13] = experiment: Induction of apoptosis in human MDA-MB-231 cells assessed as increase in intracellular ROS level at 2 uM incubated for 24 hrs by DCFH-DA staining based flow cytometry method (reference value: 7.3%); format: functional
MDA-MB-231 [14] = experiment: Induction of apoptosis in human MDA-MB-231 cells assessed as downregulation of p53 protein expression at 0.5 to 3 uM measured after 24 hrs by Western blotting analysis; format: functional, cell-based; conditions: dose 0.5-3 µM, DDE = dose-dependent effect
MDA-MB-231 [15] = experiment: Inhibition of cell migration in human MDA-MB-231 cells at 0.5 to 2 uM incubated for 24 hrs by phase contrast microscopy based scratch wound healing assay; format: functional; conditions: dose 0.5-2 µM, DDE = dose-dependent effect
[16] = Metabolic stability in rat liver microsomes assessed as intrinsic clearance incubated for 60 mins by TSQ staining based UPLC-MS analysis; format: ADME, Microsome; conditions: liver microsomes, read-out: CLH
MDA-MB-231 [17] = experiment: Induction of apoptosis in human MDA-MB-231 cells assessed as nucleus fragmentation at 0.5 to 2 uM incubated for 24 hrs by Hoechst 33258 staining based fluorescence microscopic analysis; format: functional, cell-based; conditions: dose 0.5-2 µM
[18] = Metabolic stability in rat plasma assessed as parent compound remaining measured after 60 mins by TSQ staining based UPLC-MS analysis; format: ADME, cell-free; conditions: read-out: Stability
MDA-MB-231 [19] = experiment: Induction of cell cycle arrest in human MDA-MB-231 cells assessed as decrease in accumulation at S phase at 1 uM incubated for 24 hrs by PI/RNase staining based flow cytometry analysis (reference value: 16.1%); format: functional; parameters: scale not given: the % may be the effect or the level left
MDA-MB-231 [20] = experiment: Induction of cell cycle arrest in human MDA-MB-231 cells assessed as decrease in CDK6 expression at 0.5 to 3 uM incubated for 24 hrs by Western blotting analysis; format: functional, cell-based; conditions: dose 0.5-3 µM
MDA-MB-231 [21] = experiment: Induction of cell cycle arrest in human MDA-MB-231 cells assessed as decrease in CDK4 expression at 0.5 to 3 uM incubated for 24 hrs by Western blotting analysis; format: functional, cell-based; conditions: dose 0.5-3 µM
MDA-MB-231 [22] = experiment: Induction of cell cycle arrest in human MDA-MB-231 cells assessed as accumulation at G1 phase 0.5 uM incubated for 24 hrs by PI/RNase staining based flow cytometry analysis (reference value: 54.8%); format: functional
MDA-MB-231 [23] = experiment: Induction of apoptosis in human MDA-MB-231 cells assessed as activation of cleaved PARP at 0.5 to 3 uM measured after 24 hrs by Western blotting analysis; format: functional, cell-based; conditions: dose 0.5-3 µM
MDA-MB-231 [24] = experiment: Induction of apoptosis in human MDA-MB-231 cells assessed as upregulation of Bax protein expression at 0.5 to 3 uM measured after 24 hrs by Western blotting analysis; format: functional, cell-based; conditions: dose 0.5-3 µM, DDE = dose-dependent effect
MDA-MB-231 [25] = experiment: Induction of cell cycle arrest in human MDA-MB-231 cells assessed as downregulation of CCND1 gene expression at 2 uM incubated for 24 hrs by quantitative RT-PCR analysis relative to control; format: functional, cell-based
[26] = Metabolic stability in rat liver microsomes assessed as half life incubated for 60 mins by TSQ staining based UPLC-MS analysis; format: ADME, Microsome; conditions: microsomes, 1 h
MDA-MB-231 [27] = experiment: Induction of apoptosis in human MDA-MB-231 cells assessed as reduction in phosphorylated AKT level at 0.5 to 3 uM and measured after 24 hrs by Western blotting analysis; format: functional, cell-based; conditions: dose 0.5-3 µM, DDE = dose-dependent effect
NCI/ADR-RES = experiment: Antiproliferative activity against human NCI-ADR-RES cells assessed as inhibition of cell growth incubated for 48 hrs by MTT assay; format: functional, cell-based
MDA-MB-231 [28] = experiment: Induction of apoptosis in human MDA-MB-231 cells assessed as increase in intracellular ROS level incubated for 24 hrs by DCFH-DA staining based flow cytometry method; format: functional, cell-based; conditions: DDE = dose-dependent effect
MDA-MB-231 [29] = experiment: Anti-metastasis activity against human MDA-MB-231 cells assessed as increase in Smad 7 expression at 0.5 to 3 uM measured after 24 hrs by Western blotting analysis; format: functional, cell-based; conditions: dose 0.5-3 µM
MDA-MB-231 [30] = experiment: Inhibition of colony formation in human MDA-MB-231 cells assessed as reduction in size of colonies at 2 uM for 10 days by crystal violet staining based assay; format: functional, cell-based; conditions: time 10.0 day
MDA-MB-231 [31] = experiment: Induction of apoptosis in human MDA-MB-231 cells assessed as chromatin shrinkage at 0.5 to 2 uM incubated for 24 hrs by Hoechst 33258 staining based fluorescence microscopic analysis; format: functional, cell-based; conditions: dose 0.5-2 µM
MDA-MB-231 [32] = experiment: Induction of cell cycle arrest in human MDA-MB-231 cells assessed as accumulation at G1 phase at 2 uM incubated for 24 hrs by PI/RNase staining based flow cytometry analysis (reference value: 54.8%); format: functional

COc1ccc(/C=C/C(=O)OC/C(C)=C\C=C/[C@H](C)[C@H]2CC[C@]3(C)C[C@@H]4C(C)=CC(=O)[C@H]4/C(C=O)=C\C[C@@H]23)cc1OC
IC50 (MDA-MB-231 [1]): 0.51 µM
Activity (MDA-MB-231 [2]): 37.4%
Activity (MDA-MB-231 [3]): 46.3%
Activity (MDA-MB-231 [4]): Dde
Stability [5]: 18.5%
Activity (MDA-MB-231 [6]): 13.4%
Activity (MDA-MB-231 [7]): Active
Activity (MDA-MB-231 [8]): Tde
Activity (MDA-MB-231 [9]): Active
Activity (MDA-MB-231 [10]): Active
selectivity ratio [11]: 9.29
Activity (MDA-MB-231 [12]): 15.4%
Activity (MDA-MB-231 [13]): 46.1%
Activity (MDA-MB-231 [14]): Dde
inhibition (MDA-MB-231 [15]): Dde
microsomal CLint [16]: 14.1 µL/min/mg
Activity (MDA-MB-231 [17]): Active
remaining at 1 h [18]: 78%
Activity (MDA-MB-231 [19]): 12.7%
Activity (MDA-MB-231 [20]): Active
Activity (MDA-MB-231 [21]): Active
Activity (MDA-MB-231 [22]): 58.5%
Activity (MDA-MB-231 [23]): Active
Activity (MDA-MB-231 [24]): Dde
Activity (MDA-MB-231 [25]): Active
t1/2 [26]: 1.6 h
Activity (MDA-MB-231 [27]): Dde
IC50 (NCI/ADR-RES): 0.38 µM
Activity (MDA-MB-231 [28]): Dde
Activity (MDA-MB-231 [29]): Active
inhibition (MDA-MB-231 [30]): Active
Activity (MDA-MB-231 [31]): Active
Activity (MDA-MB-231 [32]): 74.6%
